Experimental data as given in patent US20260234167A1, “SOLID STATE FORMS OF DELGOCITINIB AND PROCESS THEREOF” (ASSIA CHEMICAL INDUSTRIES LTD., priority 2023, published 2026).
One block for each molecule: values may come before it.

How the values were obtained:
Assay type in all cases: physicochemical
[1] = Stability to compression (2 tons, hydraulic press), XRPD after 2 minutes
Procedure: Powder X-ray Diffraction was performed on an X-Ray powder diffractometer Bruker D8 Advance; CuK radiation (λ=1.5418 Å); Lynx eye detector; laboratory temperature 22-25° C.; PMMA specimen holder ring. Prior to analysis, the samples were gently ground by means of mortar and pestle in order to obtain a fine powder. The ground sample was adjusted into a cavity of the sample holder and the surface of the sample was smoothed by means of a cover glass. Measurement parameters: Scan range: 2-40 degrees 2-theta; Scan mode: continuous; Step size: 0.05 degrees; Time per step: 0.5 s; Sample spin: 30 rpm; Sample holder: PMMA specimen holder ring with silicon low background. Samples of Delgocitinib were subjected to pressures of 2 tons (Atlas® Autopress hydraulic press, set to 2 tons). XRPD analysis was carried out on the samples after 2 minutes.

[2] = Grinding experiments (strong grinding in mortar with pestle for 2 minutes), XRPD after grinding; conditions: for XRPD after grinding: about 20 mg ground in mortar with pestle for 2 minutes
Procedure: Powder X-ray Diffraction was performed on an X-Ray powder diffractometer Bruker D8 Advance; CuK radiation (λ=1.5418 Å); Lynx eye detector; laboratory temperature 22-25° C.; PMMA specimen holder ring. Prior to analysis, the samples were gently ground by means of mortar and pestle in order to obtain a fine powder. The ground sample was adjusted into a cavity of the sample holder and the surface of the sample was smoothed by means of a cover glass. Measurement parameters: Scan range: 2-40 degrees 2-theta; Scan mode: continuous; Step size: 0.05 degrees; Time per step: 0.5 s; Sample spin: 30 rpm; Sample holder: PMMA specimen holder ring with silicon low background. Samples of Delgocitinib forms according to the disclosure were subjected to strong grinding. In these experiments, about 20 mg of the sample was placed in a mortar and ground with a pestle for 2 minutes. XRPD analysis was performed on each sample after the grinding experiment (Table 4): […]

[3] = Storage stability at different relative humidities at ambient temperature, XRPD after 7 days; conditions: for XRPD after storage at different relative humidities for 7 days: ambient temperature
Procedure: Powder X-ray Diffraction was performed on an X-Ray powder diffractometer Bruker D8 Advance; CuK radiation (λ=1.5418 Å); Lynx eye detector; laboratory temperature 22-25° C.; PMMA specimen holder ring. Prior to analysis, the samples were gently ground by means of mortar and pestle in order to obtain a fine powder. The ground sample was adjusted into a cavity of the sample holder and the surface of the sample was smoothed by means of a cover glass. Measurement parameters: Scan range: 2-40 degrees 2-theta; Scan mode: continuous; Step size: 0.05 degrees; Time per step: 0.5 s; Sample spin: 30 rpm; Sample holder: PMMA specimen holder ring with silicon low background. Samples of crystalline forms of Delgocitinib according to the disclosure, were subjected to conditions of different relative humidities at ambient temperature. XRPD analysis was performed on the samples after 7 days.

[4] = Storage stability at different relative humidities and temperatures in packed bags, XRPD after 1, 2, 3 and 6 months
Procedure: Powder X-ray Diffraction was performed on an X-Ray powder diffractometer Bruker D8 Advance; CuK radiation (λ=1.5418 Å); Lynx eye detector; laboratory temperature 22-25° C.; PMMA specimen holder ring. Prior to analysis, the samples were gently ground by means of mortar and pestle in order to obtain a fine powder. The ground sample was adjusted into a cavity of the sample holder and the surface of the sample was smoothed by means of a cover glass.
Measurement parameters: Scan range: 2-40 degrees 2-theta; Scan mode: continuous; Step size: 0.05 degrees; Time per step: 0.5 s; Sample spin: 30 rpm; Sample holder: PMMA specimen holder ring with silicon low background.
Samples of Delgocitinib polymorph forms according to the disclosure were subjected to conditions of different relative humidities at different temperatures. Forms DL1 was kept in low-density polyethylene bag (twist and tied) covered by triple laminated bag (heat and sealed). Forms DL2, DL3, DL10 and DL11 were kept in low-density polyethylene bag (twist and tied) and covered by triple laminated bag (heat and sealed), while 2 gram silica gel sachet was added in between the two bags.

XRPD after compression force (2 tons for 2 minutes) ([1]; listed as DL1): DL1
Stability under high pressure conditions (conclusion in words) ([1]; 2 tons, 2 minutes): stable under high pressure conditions
XRPD after grinding ([2]; listed as DL1): DL1
Resistance to polymorphic changes on grinding (conclusion in words) ([2]; strong grinding, 2 minutes): resistant to polymorphic changes
XRPD after storage at different relative humidities for 7 days ([3]; 20% relative humidity, listed as DL1): DL1
Stability after exposure to high and low relative humidity conditions (conclusion in words) ([3]; 20-80% relative humidity, at least 7 days): stable
XRPD after storage at different relative humidities for 7 days ([3]; 40% relative humidity, listed as DL1): DL1
XRPD after storage at different relative humidities for 7 days ([3]; 60% relative humidity, listed as DL1): DL1
XRPD after storage at different relative humidities for 7 days ([3]; 80% relative humidity, listed as DL1): DL1
XRPD after storage at 25° C. at 60% RH ([4]; 1 month, listed as DL1): DL1
XRPD after storage at 25° C. at 60% RH ([4]; 2 months, listed as DL1): DL1
XRPD after storage at 25° C. at 60% RH ([4]; 3 months, listed as DL1): DL1
XRPD after storage at 25° C. at 60% RH ([4]; 6 months, listed as DL1): DL1
Storage stability (conclusion in words) ([4]; 25° C./60% RH and 40° C./75% RH, up to 6 months): highly storage stable
XRPD after storage at 40° C. at 75% RH ([4]; 1 month, listed as DL1): DL1
XRPD after storage at 40° C. at 75% RH ([4]; 2 months, listed as DL1): DL1
XRPD after storage at 40° C. at 75% RH ([4]; 3 months, listed as DL1): DL1
XRPD after storage at 40° C. at 75% RH ([4]; 6 months, listed as DL1): DL1
Compound: C[C@H]1CN(C(=O)CC#N)[C@]12CCN(c1ncnc3[nH]ccc13)C2 [Form DL1, 3-[(3S,4R)-3-methyl-7-(7H-pyrrolo[2,3-d]pyrimidin-4-yl)-1,7-diazaspiro[3.4]octan-1-yl]-3-oxopropanenitrile]

XRPD after compression force (2 tons for 2 minutes) ([1]; listed as DL2): DL2
XRPD after grinding ([2]; listed as DL2): DL2
XRPD after storage at different relative humidities for 7 days ([3]; 20% relative humidity, listed as DL2): DL2
XRPD after storage at different relative humidities for 7 days ([3]; 40% relative humidity, listed as DL2): DL2
XRPD after storage at different relative humidities for 7 days ([3]; 60% relative humidity, listed as DL2): DL2
XRPD after storage at different relative humidities for 7 days ([3]; 80% relative humidity, listed as DL2): DL2
XRPD after storage at 25° C. at 60% RH ([4]; 1 month, listed as DL2): DL2
XRPD after storage at 25° C. at 60% RH ([4]; 2 months, listed as DL2): DL2
XRPD after storage at 25° C. at 60% RH ([4]; 3 months, listed as DL2): DL2
XRPD after storage at 25° C. at 60% RH ([4]; 6 months, listed as DL2): DL2
XRPD after storage at 40° C. at 75% RH ([4]; 1 month, listed as DL2): DL2
XRPD after storage at 40° C. at 75% RH ([4]; 2 months, listed as DL2): DL2
XRPD after storage at 40° C. at 75% RH ([4]; 3 months, listed as DL2): DL2
XRPD after storage at 40° C. at 75% RH ([4]; 6 months, listed as DL2): DL2
Compound: C[C@H]1CN(C(=O)CC#N)[C@]12CCN(c1ncnc3[nH]ccc13)C2 [Form DL2, 3-[(3S,4R)-3-methyl-7-(7H-pyrrolo[2,3-d]pyrimidin-4-yl)-1,7-diazaspiro[3.4]octan-1-yl]-3-oxopropanenitrile]

XRPD after compression force (2 tons for 2 minutes) ([1]; listed as DL3): DL3
XRPD after grinding ([2]; listed as DL3): DL3
XRPD after storage at different relative humidities for 7 days ([3]; 20% relative humidity, listed as DL3): DL3
XRPD after storage at different relative humidities for 7 days ([3]; 40% relative humidity, listed as DL3): DL3
XRPD after storage at different relative humidities for 7 days ([3]; 60% relative humidity, listed as DL3): DL3
XRPD after storage at different relative humidities for 7 days ([3]; 80% relative humidity, listed as DL3): DL3
XRPD after storage at 25° C. at 60% RH ([4]; 1 month, listed as DL3): DL3
XRPD after storage at 25° C. at 60% RH ([4]; 2 months, listed as DL3): DL3
XRPD after storage at 25° C. at 60% RH ([4]; 3 months, listed as DL3): DL3
XRPD after storage at 25° C. at 60% RH ([4]; 6 months, listed as DL3): DL3
XRPD after storage at 40° C. at 75% RH ([4]; 1 month, listed as DL3): DL3
XRPD after storage at 40° C. at 75% RH ([4]; 2 months, listed as DL3): DL3
XRPD after storage at 40° C. at 75% RH ([4]; 3 months, listed as DL3): DL3
XRPD after storage at 40° C. at 75% RH ([4]; 6 months, listed as DL3): DL3
Compound: C[C@H]1CN(C(=O)CC#N)[C@]12CCN(c1ncnc3[nH]ccc13)C2 [Form DL3, 3-[(3S,4R)-3-methyl-7-(7H-pyrrolo[2,3-d]pyrimidin-4-yl)-1,7-diazaspiro[3.4]octan-1-yl]-3-oxopropanenitrile]

XRPD after compression force (2 tons for 2 minutes) ([1]; listed as DL10): DL10
XRPD after grinding ([2]; listed as DL10): DL10
XRPD after storage at different relative humidities for 7 days ([3]; 20% relative humidity, listed as DL10): DL10
XRPD after storage at different relative humidities for 7 days ([3]; 40% relative humidity, listed as DL10): DL10
XRPD after storage at different relative humidities for 7 days ([3]; 60% relative humidity, listed as DL10): DL10
XRPD after storage at different relative humidities for 7 days ([3]; 80% relative humidity, listed as DL10): DL10
XRPD after storage at 25° C. at 60% RH ([4]; 1 month, listed as DL10): DL10
XRPD after storage at 25° C. at 60% RH ([4]; 2 months, listed as DL10): DL10
XRPD after storage at 25° C. at 60% RH ([4]; 3 months, listed as DL10): DL10
XRPD after storage at 25° C. at 60% RH ([4]; 6 months, listed as DL10): DL10
XRPD after storage at 40° C. at 75% RH ([4]; 1 month, listed as DL10): DL10
XRPD after storage at 40° C. at 75% RH ([4]; 2 months, listed as DL10): DL10
XRPD after storage at 40° C. at 75% RH ([4]; 3 months, listed as DL10): DL10
XRPD after storage at 40° C. at 75% RH ([4]; 6 months, listed as DL10): DL10
Compound: C[C@H]1CN(C(=O)CC#N)[C@]12CCN(c1ncnc3[nH]ccc13)C2 [Form DL10, 3-[(3S,4R)-3-methyl-7-(7H-pyrrolo[2,3-d]pyrimidin-4-yl)-1,7-diazaspiro[3.4]octan-1-yl]-3-oxopropanenitrile]

XRPD after compression force (2 tons for 2 minutes) ([1]; listed as DL11): DL11
XRPD after grinding ([2]; listed as DL11): DL11
XRPD after storage at different relative humidities for 7 days ([3]; 20% relative humidity, listed as DL11): DL11
XRPD after storage at different relative humidities for 7 days ([3]; 40% relative humidity, listed as DL11): DL11
XRPD after storage at different relative humidities for 7 days ([3]; 60% relative humidity, listed as DL11): DL11
XRPD after storage at different relative humidities for 7 days ([3]; 80% relative humidity, listed as DL11): DL11
XRPD after storage at 25° C. at 60% RH ([4]; 1 month, listed as DL11): DL11
XRPD after storage at 25° C. at 60% RH ([4]; 2 months, listed as DL11): DL11
XRPD after storage at 25° C. at 60% RH ([4]; 3 months, listed as DL11): DL11
XRPD after storage at 25° C. at 60% RH ([4]; 6 months, listed as DL11): DL11
XRPD after storage at 40° C. at 75% RH ([4]; 1 month, listed as DL11): DL11
XRPD after storage at 40° C. at 75% RH ([4]; 2 months, listed as DL11): DL11
XRPD after storage at 40° C. at 75% RH ([4]; 3 months, listed as DL11): DL11
XRPD after storage at 40° C. at 75% RH ([4]; 6 months, listed as DL11): DL11
Compound: C[C@H]1CN(C(=O)CC#N)[C@]12CCN(c1ncnc3[nH]ccc13)C2 [Form DL11, 3-[(3S,4R)-3-methyl-7-(7H-pyrrolo[2,3-d]pyrimidin-4-yl)-1,7-diazaspiro[3.4]octan-1-yl]-3-oxopropanenitrile]
